Like-named read-outs stand apart in the source and are kept apart here.
What was measured:
[1] = test system: PA-038, blaNDM; experiment: MIC / checkerboard with ATM; assay type: cell-based, P. aeruginosa; conditions: for MIC: Pseudomonas aeruginosa, read-out: MIC of ATM with 5, PA-038
[2] = test system: PA-025, blaNDM; experiment: MIC / checkerboard with ATM; assay type: cell-based, P. aeruginosa; conditions: for MIC: Pseudomonas aeruginosa, read-out: MIC of ATM with 5, PA-025
[3] = test system: PA-037, blaIMP/NDM; experiment: MIC / checkerboard with ATM; assay type: cell-based, P. aeruginosa; conditions: for MIC: Pseudomonas aeruginosa, read-out: MIC of ATM with 5, PA-037
[4] = test system: PA-028, blaNDM; experiment: MIC / checkerboard with ATM; assay type: cell-based, P. aeruginosa; conditions: for MIC: Pseudomonas aeruginosa, read-out: MIC of ATM with 5, PA-028
[5] = test system: PA-041, blaNDM; experiment: MIC / checkerboard with ATM; assay type: cell-based, P. aeruginosa; conditions: for MIC: Pseudomonas aeruginosa, read-out: MIC of ATM with 5, PA-041
[6] = test system: NDM-1-Producing P. aeruginosa (PA-017, blaNDM); experiment: MIC / checkerboard with ATM; assay type: cell-based; conditions: for MIC: Pseudomonas aeruginosa
[7] = test system: PA-030, blaIMP; experiment: MIC / checkerboard with ATM; assay type: cell-based, P. aeruginosa; conditions: for MIC: Pseudomonas aeruginosa, read-out: MIC of ATM with 5, PA-030
[8] = test system: PA-016, blaIMP; experiment: MIC / checkerboard with ATM; assay type: cell-based, P. aeruginosa; conditions: for MIC: Pseudomonas aeruginosa, read-out: MIC of ATM with 5, PA-016
[9] = test system: PA-027, blaIMP; experiment: MIC / checkerboard with ATM; assay type: cell-based, P. aeruginosa; conditions: for MIC: Pseudomonas aeruginosa, read-out: MIC of ATM with 5, PA-027
[10] = test system: PA-034, blaNDM; experiment: MIC / checkerboard with ATM; assay type: cell-based, P. aeruginosa; conditions: for MIC: Pseudomonas aeruginosa, read-out: MIC of ATM with 5, PA-034
[11] = In vivo toxicity; conditions: 6-week-old C57BL/6J female mouse
[12] = In vivo pharmacokinetic study; parameters: species or system Sprague–Dawley (SD) rats; conditions: rat; for Vd: iv, 5 mg/kg; for MRT last: read-out: MRT0–last; for MRT inf: read-out: MRT0–∞
Experimental: After administration of compound 5 (5 mg/kg intravenously and 10 mg/kg orally) to specific pathogen-free (SPF) male Sprague–Dawley (SD) rats (Medicilon Colony: 999M-017), samples of serum were taken at eight different time points (0.083, 0.25, 0.5, 1, 2, 4, 8, and 24 h). Analysis of the samples were performed by liquid chromatography with tandem mass spectrometry (LC-MS/MS). A standard set of parameters were calculated using non-compartmental analysis modules in FDA certified pharmacokinetic program Phoenix WinNonlin 7.0 (Pharsight, Mountain View, CA, USA).

[13] = male, Sprague-Dawley, serum, Intravenous (5 mg/kg)
[14] = male, Sprague-Dawley, serum, Oral (10 mg/kg)

CC(C)(C)CCOc1c(-c2ccc(F)c(F)c2)oc2cc(OCC(=O)O)cc(O)c2c1=O [Compound 5, 2-((2-(3,4-Difluorophenyl)-3-(3,3-dimethylbutoxy)-5-hydroxy-4-oxo-4H-chromen-7-yl)oxy)acetic Acid]
1280 ± 540 ng·h/mL: AUC(0-inf) [12, 14]
23.6 mL/min/kg: clearance ([12]; male, Sprague-Dawley, serum, Intravenous (5 mg/kg), read-out: Cl (systemic clearance))
S (S (sensitive, MIC ≤ 8 mg/L)): Susceptibility to ATM ([1]; PA-038, ATM/5) | Susceptibility to ATM ([2]; PA-025, ATM/5) | Susceptibility to ATM ([3]; PA-037, ATM/5) | Susceptibility to ATM ([4]; PA-028, ATM/5) | Susceptibility to ATM ([5]; PA-041, ATM/5) | Susceptibility to ATM ([6]; PA-017, ATM/5) | Susceptibility to ATM ([7]; PA-030, ATM/5) | Susceptibility to ATM ([8]; PA-016, ATM/5) | Susceptibility to ATM ([9]; PA-027, ATM/5) | Susceptibility to ATM ([10]; PA-034, ATM/5)
2/2: Concentrations of ATM and 5 at lowest FICI (ATM/5) ([4]; PA-028)
8/8: Concentrations of ATM and 5 at lowest FICI (ATM/5) ([8]; PA-016)
0.26: Lowest FICI (ATM/5) ([6]; PA-017) | Lowest FICI (ATM/5) ([7]; PA-030) | Lowest FICI (ATM/5) ([9]; PA-027)
1250 ± 570 ng·h/mL: AUC(0-t) [12, 14]
16/4: Concentrations of ATM and 5 at lowest FICI (ATM/5) ([7]; PA-030)
8/4: Concentrations of ATM and 5 at lowest FICI (ATM/5) ([9]; PA-027)
3610 ± 590 ng·h/mL: AUC(0-inf) [12, 13]
1.28 ± 0.53 h: half-life [12, 14]
3600 ± 590 ng·h/mL: AUC(0-t) [12, 13]
8 mg/L: Minimum concentration of 5 to make sensitive to ATM ([8]; PA-016)
S (S (Synergy, FICI ≤ 0.5)): Activity (FICI class) ([1]; PA-038) | Activity (FICI class) ([2]; PA-025) | Activity (FICI class) ([3]; PA-037) | Activity (FICI class) ([4]; PA-028) | Activity (FICI class) ([5]; PA-041) | Activity (FICI class) ([6]; PA-017) | Activity (FICI class) ([7]; PA-030) | Activity (FICI class) ([8]; PA-016) | Activity (FICI class) ([9]; PA-027) | Activity (FICI class) ([10]; PA-034)
16 µg/mL: MIC ([1]; 5 at 1 mg/L) | MIC ([1]; 5 at 2 mg/L) | MIC ([2]; 5 at 1 mg/L) | MIC ([2]; 5 at 2 mg/L) | MIC ([7]; 5 at 4 mg/L) | MIC ([7]; 5 at 8 mg/L) | MIC ([8]; 5 at 2 mg/L) | MIC ([8]; 5 at 4 mg/L) | MIC ([9]; 5 at 2 mg/L) | MIC ([10]; 5 at 1 mg/L) | MIC ([10]; 5 at 2 mg/L)
3.13 ± 0.35 h: MRT inf [12, 14]
4/8: Concentrations of ATM and 5 at lowest FICI (ATM/5) ([1]; PA-038) | Concentrations of ATM and 5 at lowest FICI (ATM/5) ([10]; PA-034)
0.92 ± 0.42 h: half-life [12, 13]
0.28: Lowest FICI (ATM/5) ([2]; PA-025)
1/8: Concentrations of ATM and 5 at lowest FICI (ATM/5) ([3]; PA-037)
0.31: Lowest FICI (ATM/5) ([5]; PA-041)
0.65 ± 0.09 L/kg: Vd ([12]; male, Sprague-Dawley, serum, Intravenous (5 mg/kg), read-out: Vss)
4/16: Concentrations of ATM and 5 at lowest FICI (ATM/5) ([2]; PA-025)
2.87 ± 0.25 h: MRT last [12, 14]
11100 ± 2390 ng/mL: C0 [12, 13]
4 µg/mL: MIC ([1]; 5 at 8 mg/L) | MIC ([1]; 5 at 16 mg/L) | MIC ([1]; 5 at 32 mg/L) | MIC ([1]; 5 at 64 mg/L) | MIC ([2]; 5 at 16 mg/L) | MIC ([4]; 5 at 1 mg/L) | MIC ([5]; 5 at 1 mg/L) | MIC ([5]; 5 at 2 mg/L) | MIC ([6]; read-out: MIC of ATM with 5, PA-017, 5 at 4 mg/L) | MIC ([6]; read-out: MIC of ATM with 5, PA-017, 5 at 8 mg/L) | MIC ([7]; 5 at 64 mg/L) | MIC ([8]; 5 at 32 mg/L) | MIC ([8]; 5 at 64 mg/L) | MIC ([9]; 5 at 8 mg/L) | MIC ([10]; 5 at 8 mg/L) | MIC ([10]; 5 at 16 mg/L) | MIC ([10]; 5 at 32 mg/L) | MIC ([10]; 5 at 64 mg/L)
7510 ± 1340 ng/mL: Cmax ([12]; Intravenous (5 mg/kg))
0.65 L/kg: Vd ([12]; male, Sprague-Dawley, serum, intravenous 5 mg/kg, read-out: Vss)
4 mg/L: Minimum concentration of 5 to make sensitive to ATM ([1]; PA-038) | Minimum concentration of 5 to make sensitive to ATM ([2]; PA-025) | Minimum concentration of 5 to make sensitive to ATM ([6]; PA-017) | Minimum concentration of 5 to make sensitive to ATM ([9]; PA-027) | Minimum concentration of 5 to make sensitive to ATM ([10]; PA-034)
1 µg/mL: MIC ([3]; 5 at 8 mg/L) | MIC ([3]; 5 at 16 mg/L) | MIC ([3]; 5 at 32 mg/L) | MIC ([3]; 5 at 64 mg/L) | MIC ([4]; 5 at 16 mg/L) | MIC ([4]; 5 at 32 mg/L) | MIC ([4]; 5 at 64 mg/L) | MIC ([5]; 5 at 32 mg/L) | MIC ([5]; 5 at 64 mg/L) | MIC ([6]; read-out: MIC of ATM with 5, PA-017, 5 at 64 mg/L)
4/4: Concentrations of ATM and 5 at lowest FICI (ATM/5) ([6]; PA-017)
32 µg/mL: MIC ([7]; 5 at 1 mg/L) | MIC ([7]; 5 at 2 mg/L) | MIC ([8]; 5 at 1 mg/L) | MIC ([9]; 5 at 1 mg/L)
1.84 ± 0.76 L/kg: Vd ([12]; male, Sprague-Dawley, serum, Intravenous (5 mg/kg), read-out: Vz)
2 h: Tmax [12, 14]
0.27: Lowest FICI (ATM/5) ([1]; PA-038) | Lowest FICI (ATM/5) ([3]; PA-037) | Lowest FICI (ATM/5) ([8]; PA-016) | Lowest FICI (ATM/5) ([10]; PA-034)
4: FD (fold decrease in MIC of ATM with 5) ([1]; PA-038, lowest-FICI combination) | FD (fold decrease in MIC of ATM with 5) ([2]; PA-025, lowest-FICI combination) | FD (fold decrease in MIC of ATM with 5) ([3]; PA-037, lowest-FICI combination) | FD (fold decrease in MIC of ATM with 5) ([4]; PA-028, lowest-FICI combination) | FD (fold decrease in MIC of ATM with 5) ([5]; PA-041, lowest-FICI combination) | FD (fold decrease in MIC of ATM with 5) ([6]; PA-017, lowest-FICI combination) | FD (fold decrease in MIC of ATM with 5) ([7]; PA-030, lowest-FICI combination) | FD (fold decrease in MIC of ATM with 5) ([8]; PA-016, lowest-FICI combination) | FD (fold decrease in MIC of ATM with 5) ([9]; PA-027, lowest-FICI combination) | FD (fold decrease in MIC of ATM with 5) ([10]; PA-034, lowest-FICI combination)
16 mg/L: Minimum concentration of 5 to make sensitive to ATM ([7]; PA-030)
0.45 ± 0.02 h: MRT last [12, 13]
290 ± 140 ng/mL: Cmax ([12]; male, Sprague-Dawley, serum, Oral (10 mg/kg), read-out: Cmax)
2 µg/mL: MIC ([2]; 5 at 32 mg/L) | MIC ([2]; 5 at 64 mg/L) | MIC ([3]; 5 at 1 mg/L) | MIC ([3]; 5 at 2 mg/L) | MIC ([3]; 5 at 4 mg/L) | MIC ([4]; 5 at 2 mg/L) | MIC ([4]; 5 at 4 mg/L) | MIC ([4]; 5 at 8 mg/L) | MIC ([5]; 5 at 4 mg/L) | MIC ([5]; 5 at 8 mg/L) | MIC ([5]; 5 at 16 mg/L) | MIC ([6]; read-out: MIC of ATM with 5, PA-017, 5 at 16 mg/L) | MIC ([6]; read-out: MIC of ATM with 5, PA-017, 5 at 32 mg/L) | MIC ([9]; 5 at 16 mg/L) | MIC ([9]; 5 at 32 mg/L) | MIC ([9]; 5 at 64 mg/L)
0.46 ± 0.02 h: MRT inf [12, 13]
1/32: Concentrations of ATM and 5 at lowest FICI (ATM/5) ([5]; PA-041)
≥ 40 mg/kg: Dose up to which no toxicity was shown [11]
17.3 ± 7.88%: bioavailability ([12]; male, Sprague-Dawley, serum, Oral (10 mg/kg), read-out: F (bioavailability))
0.25: Lowest FICI (ATM/5) ([4]; PA-028)
> 256 µg/mL: MIC ([6]; PA-017, compound alone, read-out: MIC, Cmpd)
8 µg/mL: MIC ([1]; 5 at 4 mg/L) | MIC ([2]; 5 at 4 mg/L) | MIC ([2]; 5 at 8 mg/L) | MIC ([6]; read-out: MIC of ATM with 5, PA-017, 5 at 1 mg/L) | MIC ([6]; read-out: MIC of ATM with 5, PA-017, 5 at 2 mg/L) | MIC ([7]; 5 at 16 mg/L) | MIC ([7]; 5 at 32 mg/L) | MIC ([8]; 5 at 8 mg/L) | MIC ([8]; 5 at 16 mg/L) | MIC ([9]; 5 at 4 mg/L) | MIC ([10]; 5 at 4 mg/L)
7510 ng/mL: Cmax ([12]; male, Sprague-Dawley, serum, Intravenous (5 mg/kg), read-out: Cmax)
